Results as given in ChEMBL document CHEMBL1151005 (Bioorg Med Chem Lett, 1995).

target: Human immunodeficiency virus type 1 reverse transcriptase (Human immunodeficiency virus 1, UniProt Q72547); test: Inhibitory activity against HIV-1 Reverse transcriptase (RT) was determined

CCN1c2cnccc2C(=O)N(C)c2cccnc21 was tested. Which IC50 did it give?
Its IC50 is 6400 nM.

How did the IC50 turn out when CCN1c2ccncc2N(C)C(=O)c2cccnc21 was run?
The IC50 was 1600 nM.

For CCN1c2cnccc2N(C)C(=O)c2cccnc21, which IC50 is on record?
Its IC50 is 350 nM.
